In patent publication EP0374267A1, “DERIVATIVES OF PLATINUM (P) WITH A POLYANION OF DEOXYRIBONUCLEIC ACID, METHOD FOR OBTAINING THEM AND PHARMACEUTICAL ANTITUMOR PREPARATION BASED ON THEM” (priority 1988, dated 1989):

What was measured:
Shvetz-Erythromyelose = test: Antineoplastic activity against transplanted Shvetz erythromyelosis in rats; assay type: in vivo, weissen rassenlosen Ratten; conditions: for Grad der Hemmung des Wachstums eines Tumors: i.p. 3x at 24 h intervals from day 4-6 after inoculation, dose I 17.1, II 17,1-27,3, III 27,3, CDDP 8,1, DNS 18,0 mg/kg
From the text: Die erfindungsgemässen Verbindung weisen antineonlastische Aktivität in Verbindung mit einer immunomudulierenden Wirkung auf. Die beanspruchten Verbindungen und das erfindungsgemässe Arzneipräparat mit antineoplastischer Wirkung wurden in Versuchen an Tieren und in Kliniken an Menschen untersucht. Untersucht wurde ihre antineoplastische Aktivität gegenüber der überimnften Shvetz-Erythromyelose Die antineoplastische Aktivität jedes der angemeldeten Stoffe bewertete man nach den Ergebnissen der Versuche, die an weissen rassenlosen Ratten mit einem Gewicht von 150 bis 200 g (in Gruppen zu je 10 Tieren) angestellt wurden. Den Tieren wurden 2.10^8 - 2.10^10 Zellen des überimpften Stammes der Shvetz-Erythromyelose subkutan in die Hüfte inokuliert. Am 4. bis 6. Tag nach der Inokulation der Tumorzellen, das heisst in der Periode der logarythmischen Phase des Wachstums eines Tumors, begann man, den Tieren die erfindungsgemässen Verbindungen einzuführen. Die angemeldeten Verbindungen wurden intraperitoneal dreimal mit einem Zeitabstand von 24 stunden in Form von wässerigen Lösungen beziehungsweise wässerigen Suspensionen eingeführt.
Antineoplastische Wirkung der erfindung sgemässen Verbindungen wurde im Vergleich zur Kontrolle (ohne Anwendung der Präparate) und im Vergleich zu den CDDP- und DNS-Präparaten untersucht.
Die antineoplastische Aktivität bewertete man nach folgenden biologischen Kenndaten: Grad der Hemmung des Wachstums eines Tumors, der Uberlebenskraft von Tieren am 10. Tag nach der Inokulation vom Tumorzellen sowie der Lebensdauer von Tieren.

humorale Immunität = test: Humoral immunity in tumour-bearing rats immunised with sheep erythrocytes; assay type: in vivo, Ratten der Wistar-Linie; conditions: treated tumour bearers, 4 days after immunisation
From the text: Der Einfluss auf die homorale Immunität (Antiteloge- nese)- bewertete man nach der Menge von antikörperbildenden Zellen in der Milz und nach dem Titer von Agglutininen und Hämolysinen im Blütserum.
Der Einfluss der beansprucheen Stoffe auf die humorale Immunität wurde auch im Vergleich zum CDDP und zur DNS untersucht. Dafür wurden Ratten,Tumorträger der Shvetz-Erythromyelose der Wistar-Linie eingesetzt, denen man ein Tumor subkutan in die Hüfte überimpfte. Am 4. Tag nach der Uberimpfung des Tumors begann man ihre Behandlung nach dem gleichen Schema wie auch bei der Untersuchung der zellulären Immunität. Am 8. Tag nach der Uberimpfung des Tumors führte man die Immunisierung der Tiere durch, indem man ihnen intraperitoneal Hammelerythrozyte in einer Dosis von 2.10^6 Zellen einführt. In 4. Tagen nach der Immunisierung tötete man die Tiere mittels Dekapitation unter Anwendung von Athernarkose und man ermittelte den Gehalt an antikörperbildenden Zellen in der Milz nach der Erne-Methode und die Agglutinine- und Hämolysine-Titer im periphärischen Blut mit bekanntnn Methoden.
Der Gehalt an antikörperbildenden Zellen ermittelte man, berechnet auf I0^6 Splenozyte und auf die Gesamtmasse der Milz. Dee Versuchergebnisse sind in der Tabelle 4 angeführt.

[1] = Antibody (agglutinin) titre in serum of intact mice immunised with sheep erythrocytes; assay type: in vivo, Mäuse-Linien CBA und C57Bl6
From the text: Der Einfluss der beanspruchten Stoffe auf die Antitelogenese wurde auch an zwei gegensätzlich auf Hammelerythrozyte reagierenden Mäuse-Linien: CBA und C57Bl6 untersucht. Man verwendete Tiere mit einem Gewicht von 20+2 g, die einer Quarantäne innerhalb von mindestens 20 Tagen ausgesetzt wurden. […] In einer Stunde wurden die Tiere immunisiert, indem man ihnen intraperitoneal I0^8 Zellen der Hammelerythrozyte einführt..Am 7., 14. und 30. Tag tötete man die Tiere und ermittelte man den Gehalt an Agglutininen im Blutserum in an sich bekannter Weise. Die Ergebnisse wurden in Form lg2 der Antikörper-Titer ausgedrückt. Die Ergebnisse sind in der Tabelle 5 angeführt.

[2] = system: antikörperbildenden Zellen in der Milz; test: Antibody-forming cells in the spleen of mice immunised with sheep erythrocytes; assay type: in vivo, Mäusen der CBA-Linien und C57Bl6-Linie; conditions: CBA and C57Bl6 mice, day 4; CDDP 8,1, DNS 6,0, compounds 13,6 mg/kg i.p.; numeric Table 6 is an image
Protocol: Es wurden Untersuchungen des Einflusses der bean - spruchten Stoffe im Vergleich zu den CDDP- und DNS-Präparaten auf die Bildung von antikörperbildenden Zellen in der Milz von zwei gegensätzlich auf die Hammelerythrozyte reagierenden Mäuse-Linien durchgeführt.
In I Stunde wurden die Tiere immunisiert, indem man ihnen intraperitoneal […] Zellen der Hammelerythrozyte einführte . Am 4. Tag ermittelte man die Anzahl der antikörperbildenden Zellen in der Milz der Tiere der Versuchs-und der Kontrollgruppe (ohne Einführung des Präparats). Der Gehalt an antikörperbildenden Zellen berechnete man auf […] Splenozyte und auf die ganze Milz. Die Ergebnisse der Untersuchungen sind in der Tagelle 6 dargestellt.

[3] = CDDP in combination with Vinblastin, Bleomycin, Aktinomycin und Prednisolon; cited from earlier work
[4] = Acute toxicity, intraperitoneal, rats and mice (with histology of kidney and gut); assay type: in vivo, weissen rassenlosen Ratten; weissen nichtlinearen Mäusen; conditions: i.p. 3x at 2 h intervals, total dose
From the text: Die Anzahl der krepierten Tiere in jeder Gruppe wurde alle 21 bis 48 Stunden registriert. In jeder Gruppe waren je 12 Tiere (6 Männchen und 6 Weibchen), die Versuche wurden zweimal wiederholt. Die Ergebnisse der Versuche sind in der Tabelle 2 angeführt.
Die krepierten Tiere wurden obduziert und man führte hystologische Untersuchungen der Nieren und des Darmes durch. Die Tiere, die die beanspruchten Stoffe in einer unter der toxischen Dosis liegenden Menge verabreicht bekamen, wurden in I4 Tagen getötet. Die inneren Organe derselben wurden der Autopsie ausgesetzt.

zelluläre Immunität = test: Cellular immunity: rejection time of a skin allograft in tumour-bearing rats; assay type: in vivo, Männchenratten der Wistar-Linie; conditions: treated tumour bearers; i.p. 3x at 24 h; I 17,1, II 17,1, III 27,3, DNS 12,0, CDDP 8,1 mg/kg
From the text: Der Einfluss auf die zelluläre Immunität bewertete man nach der Zeit der Abstossung eines Allotransplantats der Haut eines Tumorträgers.
Der Einfluss der beanspruchten Stoffe auf die zelluläre Immunität wurde an Männchenratten der Wistar-Linie mit einem Gewicht von 150 bis 200 g untersucht. Den Tieren wurde ein Hautlappen mit Abmessungen 2 x 3 cm^2 von den Ratten der August-Linie in die Rückengegend transplantiert. Dann wurden denselben Tieren subkutan 2.10^8 Zellen der Shvetz-Erythromyelose in die Hüfte inokuliert. Am 4. bis 6. […] Zum Vergleich verwendete man die DNS- und CDDP-Präparate, die amn in einer Salz-lösung nach dem gleichen'Schema in Dosen von 12,0 und 8,1 mg/kg einführte. Als Kontrolle dienten intakte Tiere. Die Zeit der Abstossung des Hautlappens fixierte man nach der Änderung seiner Temperatur, Farbe und Elastizität.

Solubility = assay type: physicochemical; conditions: 20°C
[5] = pH of a solution in citrate-salt solution (potentiometric); assay type: physicochemical; conditions: 0,015 g (II: 0,018 g) in 1000 ml Zitrat-Salz-Lösung, 20°C
Protocol: Die erfindung sgemässe Verbindung, Poly{hexakis-[Chloroammindiaquaplatin (II)]} - µ - desoxyribonukleat fol- ^gender Formel: [drawing 3] worin n = 1900±90, m = bn,- DNS = (̵C39H49O32N15P4)̵n ..., verliert bei Erhitzung innerhalb von IO Stunden bei einer Temperatur von I80 bis 200°C alle Wassermoleküle. Der Stoff lässt sich schlecht in Wasser, Methanol, Athanol auflösen, er ist nichthygroskopisch. Seine Löslichkeit in wasser bei einer Temperatur von 20°C beträgt 0,002%. Eine Lösung von 0,015 g des beanspruchten Stoffes in I000 ml einer Zitrat-Salz-Lösung (0,015 Mol NaCl + 0,0015 Mol Natriumzitrat) bei einer Temperatur von 20°C hat einen pH-Wert von 5,42 (pH- potentiometrisch).

Row | Compound | Uberlebenskraft von Tieren (Shvetz-Erythromyelose; day 10 after inoculation of tumour cells, same doses as E1) | Grad der Hemmung des Wachstums eines Tumors (Shvetz-Erythromyelose) | Gehalt an antikörperbildenden Zellen je 10^6 Splenozyte (humorale Immunität) | lg2 Antikörper-Titer ([1]; Linie der Mäuse C57Bl6, day 7) | Gehalt an antikörperbildenden Zellen in der Milz [2] | Effektivität der Behandlung einer Eierstockgeschwulst [3] | lg2 Antikörper-Titer ([1]; Linie der Mäuse CBA, day 7, single i.p. dose (compounds 13,6, CDDP 8,1, DNS 6,0 mg/kg)) | lg2 Antikörper-Titer ([1]; Linie der Mäuse CBA, day 14) | lg2 Antikörper-Titer ([1]; Linie der Mäuse CBA, day 30) | LD50 ([4]; in Lösung) | LD50 ([4]; in Suspension) | Die Zeit der Abstossung (in Tagen) eines Hauptlappens (zelluläre Immunität) | Löslichkeit in Wasser (Solubility) | pH-Wert [5] | increase of Uberlebenskraft von Tieren compared with CDDP (Shvetz-Erythromyelose; versus CDDP) | lg2 Antikörper-Titer ([1]; Linie der Mäuse C57Bl6, day 14) | lg2 Antikörper-Titer ([1]; Linie der Mäuse C57Bl6, day 30) | LDI00 ([4]; in Lösung) | LDI00 ([4]; in Suspension)
1 | N.N.[Cl][Pt][Cl] [CDDP, cis-Dichlorodiaminplatin(II)] | 80% | 78% | 20,37±2,03 | 3,80±0,24 | senken | 100% |  |  |  |  |  |  |  |  |  |  |  |  | 
2 | Poly {bis[hydroxochloramminaquaplatin(II)] - tetrakis[chloroammindiaquaplatin(II)] - µ - desoxyribonukleat [Verbindung II] |  | 94% |  | 6,60±0,32 |  |  | 7,20±0,30 | 7,60±0,32 | 6,40±0,42 | 66,0 mg/kg | 66,0 mg/kg | 6,5±0,5 Tagen | 0,0075% | > 5,38 |  |  |  |  | 
3 | Poly{hexakis [chlor- amminaquaplatin(II)]} - µ - desoxyribonukleat [Verbindung III] |  | 95% |  |  |  |  |  | 8,40±0,42 | 8,50±0,30 |  | 82,5 mg/kg | 6,5±0,5 Tagen |  | 5,44 | 20% | 6,68±0,29 | 6,32±0,24 |  | 
4 | Poly{hexakis-[Chloroammindiaquaplatin (II)]} - µ - desoxyribonukleat [Verbindung I] |  | 84% | 68,4±9,38 |  |  |  |  |  |  |  |  |  | 0,002% | 5,42 |  | 6,82±0,38 |  | 84,0 mg/kg | 84,0 mg/kg
